Structures can show the parent of a compound that is named as a salt.
Tested on: HCT116
Settings: 72 h
Procedure, shortened: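 For IC50 and maximal efficacy, four-parameter Hill fits were used. Input values were CellTiter-Glo luminescence from HCT116 cells seeded at 250 per well in 1536-well plates, normalized to vehicle (0%) and positive control (-100%). Pattern correction followed normalization.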

Compound | IC50 cell viability (ICRF193 0 nM) [µM] | IC50 cell viability (ICRF193 200 nM) [µM]
CCN(CC)CCOc1ccccc1C(=O)CCc1ccccc1 [Etafenone] | > 45.8 | > 45.8
C[N+](C)(C)CCCCCCCCCC[N+](C)(C)C [Decamethonium bromide] | > 45.8 | > 45.8
c1ccc2[nH]c(-c3cscn3)nc2c1 [Thiabendazole] | > 45.8 | > 45.8
CCOC(=O)OC(C)OC(=O)[C@@H]1N2C(=O)[C@@H](NC(=O)[C@H](N)c3ccccc3)[C@H]2SC1(C)C (stereo partly drawn) [Bacampicillin hydrochloride] | > 45.8 | > 45.8
NCCCC(O)(P(=O)(O)O)P(=O)(O)O [ALENDRONATE SODIUM] | > 45.8 | > 45.8
O=C1OC(c2ccc(O)c(S(=O)(=O)O)c2)(c2ccc(O)c(S(=O)(=O)O)c2)c2c(Br)c(Br)c(Br)c(Br)c21 [Sulfobromophthalein] | > 45.8 | > 45.8
CC(c1cc2ccccc2s1)N(O)C(N)=O (stereo not drawn) [Zileuton] | > 45.8 | > 45.8
O=S(=O)(O)CCCS(=O)(=O)O [1,3-Propanedisulfonic acid disodium salt] | > 45.8 | > 45.8
CN(C)CCn1nnnc1SCC1=C(C(=O)O)N2C(=O)[C@@H](NC(=O)Cc3csc(N)n3)[C@H]2SC1 [Cefotiam hydrochloride] | > 45.8 | > 45.8
CNC[C@H](O)c1cccc(O)c1 [Phenylephrine hydrochloride] | > 45.8 | > 45.8
CC(CN(C)C)CN1c2ccccc2Sc2ccccc21 (stereo not drawn) [Trimeprazine tartrate] | > 45.8 | > 45.8
COc1ccc([C@@H]2CC(=O)c3c(O)cc(O[C@@H]4O[C@H](CO[C@@H]5O[C@@H](C)[C@H](O)[C@@H](O)[C@H]5O)[C@@H](O)[C@H](O)[C@H]4O)cc3O2)cc1O [Aurantiamarin (Methyl Hesperidin)] | > 45.8 | > 45.8
N[C@@H](C(=O)N[C@@H]1C(=O)N2C(C(=O)O)=C(Cl)CC[C@H]12)c1ccccc1 [Loracarbef] | > 45.8 | > 45.8
CC(=O)OCC(=O)[C@H]1CC[C@H]2[C@@H]3CCC4=CC(=O)CC[C@]4(C)[C@H]3CC[C@]12C [Deoxycorticosterone acetate] | > 45.8 | > 45.8
CCN(CC)C(=O)/C(C#N)=C/c1cc(O)c(O)c([N+](=O)[O-])c1 [Entacapone] | > 45.8 | > 45.8
CC(CC(C#N)(c1ccccc1)C(C)C)N(C)C (stereo not drawn) [Isoaminile] | > 45.8 | > 45.8
CCCCOc1ccc(C(=O)CCN2CCCCC2)cc1 [Dyclonine hydrochloride] | > 45.8 | > 45.8
Cc1ccccc1N1C(=O)c2cc(S(N)(=O)=O)c(Cl)cc2NC1C (stereo not drawn) [Metolazone] | > 45.8 | > 45.8
CC(C)(C)C(=O)C(Oc1ccc(Cl)cc1)n1ccnc1 (stereo not drawn) [Climbazole] | > 45.8 | > 45.8
Cc1cccc([C@H](C)c2c[nH]cn2)c1C [Dexmedetomidine] | > 45.8 | > 45.8

Compound | IC50 cell viability (ICRF193 0 nM) [µM] | IC50 cell viability (ICRF193 200 nM) [µM]
COc1cc(C)c(Cc2cnc(N)nc2N)cc1OC [Ormetoprim] | > 45.8 | > 45.8
CNS(=O)(=O)CCc1ccc2[nH]cc(C3CCN(C)CC3)c2c1 [Naratriptan hydrochloride] | > 45.8 | > 45.8
N[C@@H](Cc1cc(I)c(Oc2ccc(O)c(I)c2)c(I)c1)C(=O)O [Liothyronine Sodium] | > 45.8 | > 45.8
OCCN1C[C@H](O)[C@@H](O)[C@H](O)[C@H]1CO [Miglitol] | > 45.8 | > 45.8
CCCNCC(O)COc1ccccc1C(=O)CCc1ccccc1 (stereo not drawn) [Propafenone hydrochloride] | > 45.8 | > 45.8
Cc1ccc(Cl)c(Nc2ccccc2C(=O)O)c1Cl [Meclofenamate sodium] | > 45.8 | > 45.8
CCCOc1ccc2nc(NC(=O)OC)sc2c1 [Tioxidazole] | > 45.8 | > 45.8
C=CCN1CC[C@]23c4c5ccc(O)c4O[C@H]2C(=O)CC[C@@]3(O)[C@H]1C5 [Naloxone] | > 45.8 | > 45.8
CC(C)(C)NCC(O)CSc1nc(-c2ccc(C(N)=O)s2)cs1 (stereo not drawn) [Arotinolol hydrochloride] | > 45.8 | > 45.8
C[C@@H]1[C@H](O)[C@@H](C)/C=C/C=C/C=C/C=C/C=C/C=C/C=C/[C@H](O[C@@H]2O[C@H](C)[C@@H](O)[C@H](N)[C@@H]2O)C[C@@H]2O[C@](O)(C[C@@H](O)C[C@@H](O)[C@H](O)CC[C@@H](O)C[C@@H](O)CC(=O)O[C@H]1C)C[C@H](O)[C@H]2C(=O)O [Amphotericin B] | > 45.8 | > 45.8
CNC1CC(N)C(O)C(OC2OC(CO)C(O)C3OC4(OC(C(N)CO)C(O)C(O)C4O)OC23)C1O (stereo not drawn) [Hygromycin B] | > 45.8 | > 45.8
CCCC(=O)OC(C(Cl)(Cl)Cl)P(=O)(OC)OC (stereo not drawn) [Butonate] | > 45.8 | > 45.8
C=C1C[C@@H]2[C@H](CC[C@]3(C)C(=O)CC[C@@H]23)[C@@]2(C)C=CC(=O)C=C12 [Exemestane] | > 45.8 | > 45.8
C=CC[C@]1(O)CC[C@H]2[C@@H]3CCC4=CCCC[C@@H]4[C@H]3CC[C@@]21C [Allylestrenol] | > 45.8 | > 45.8
CCCCCCCCCCCC(=O)[O][Sn]([CH2]CCC)([CH2]CCC)[O]C(=O)CCCCCCCCCCC [Dibutyltin dilaurate] | > 45.8 | > 45.8
CC(C)[N+](C)(CCOC(=O)C1c2ccccc2Oc2ccccc21)C(C)C [Propantheline bromide] | > 45.8 | > 45.8
Cc1cc(NS(=O)(=O)c2ccc(N)cc2)nc(C)n1 [Sulfisomidine] | > 45.8 | > 45.8
CC1(C)S[C@@H]2[C@H](NC(=O)Cc3ccccc3)C(=O)N2[C@H]1C(=O)O [Penicillin G Sodium] | > 45.8 | > 45.8
C=C1C[C@H]2[C@@H]3CCC4=CC(=O)C=C[C@]4(C)[C@@]3(F)[C@@H](O)C[C@]2(C)[C@@]1(O)C(=O)COC(C)=O [Fluprednidene acetate] | > 45.8 | > 45.8
CN[C@@H]1CCc2[nH]c3ccc(C(N)=O)cc3c2C1 [Frovatriptan succinate] | > 45.8 | > 45.8

Compound | IC50 cell viability (ICRF193 0 nM) [µM] | IC50 cell viability (ICRF193 200 nM) [µM]
O=P(O)(O)OC(Cn1cncn1)(Cn1cncn1)c1ccc(F)cc1F [Fosfluconazole] | > 45.8 | > 45.8
COc1cc2c(cc1OC)C1CC(=O)C(CC(C)C)CN1CC2 (stereo not drawn) [Tetrabenazine] | > 45.8 | > 45.8
CCOC(=O)[C@H](CCc1ccccc1)N[C@@H](C)C(=O)N1Cc2ccccc2C[C@H]1C(=O)O [Quinapril hydrochloride] | > 45.8 | > 45.8
NC(=O)c1cn(Cc2c(F)cccc2F)nn1 [Rufinamide] | > 45.8 | > 45.8
CC(=O)O[C@@H]1C[C@H]2[C@@H]3CCc4cc(OC(=O)c5ccccc5)ccc4[C@H]3CC[C@]2(C)[C@H]1OC(C)=O [Estriol benzoate diacetate] | > 45.8 | > 45.8
C/C(=C(\CCOC(=O)c1ccccc1)SS/C(CCOC(=O)c1ccccc1)=C(/C)N(C=O)Cc1cnc(C)nc1N)N(C=O)Cc1cnc(C)nc1N [Bisbentiamine] | > 45.8 | > 45.8
CCOC(=O)c1ncn2c1CN(C)C(=O)c1c(I)cccc1-2 [Iomazenil] | > 45.8 | > 45.8
NC(=O)[C@@H]1CC[C@@H]2CN1C(=O)N2OS(=O)(=O)O [Avibactam sodium] | > 45.8 | > 45.8
CN(C)c1ccc(O)c2c1C[C@H]1C[C@H]3[C@H](N(C)C)C(O)=C(C(N)=O)C(=O)[C@@]3(O)C(O)=C1C2=O [Minocycline hydrochloride] | > 45.8 | > 45.8
CC(N)Cc1ccc(O)cc1 (stereo not drawn) [HYDROXYAMPHETAMINE HYDROBROMIDE] | > 45.8 | > 45.8
CC(=O)CCC1C(=O)N(c2ccccc2)N(c2ccccc2)C1=O [Kebuzone] | > 45.8 | > 45.8
CC1(C)[C@@H](OC(=O)CCC(=O)O)CC[C@]2(C)[C@H]3C(=O)C=C4[C@@H]5C[C@@](C)(C(=O)O)CC[C@]5(C)CC[C@@]4(C)[C@]3(C)CC[C@@H]12 [Carbenoxolone sodium] | > 45.8 | > 45.8
CCCNC(C)C(=O)Nc1c(C)csc1C(=O)OC (stereo not drawn) [Articaine hydrochloride] | > 45.8 | > 45.8
CC(Cc1ccccc1)NCc1ccccc1Cl (stereo not drawn) [Clobenzorex hydrochloride] | > 45.8 | > 45.8
O=C1CC2(CCCC2)CC(=O)N1CCCCN1CCN(c2ncccn2)CC1 [Buspirone] | > 45.8 | > 45.8
O=C(O)c1ccccc1Nc1cc(Cl)ccc1C(=O)O [Lobenzarit sodium] | > 45.8 | > 45.8
CCCc1ncc(C[n+]2ccccc2C)c(N)n1 [Amprolium hydrochloride] | > 45.8 | > 45.8
CC(C)(Sc1cc(C(C)(C)C)c(O)c(C(C)(C)C)c1)Sc1cc(C(C)(C)C)c(O)c(C(C)(C)C)c1 [Probucol] | > 45.8 | > 45.8
CC(C)Nc1cccnc1N1CCN(C(=O)c2cc3cc(NS(C)(=O)=O)ccc3[nH]2)CC1 [Delavirdine] | > 45.8 | > 45.8
